Where “and” joins values, the source holds several entries; their conditions need not be identical. Equal values may be shown once. Where a name gives a salt, the structure may show the parent alone.
Experiments:
β-endorphin = test: Plasma β-endorphin radioimmunoassay in UV/mock irradiated mice; format: in vivo; settings: mice treated twice a week with Naloxone or Saline; daily UV or Mock irradiation
Source text: Mice were dorsally shaved two days prior to the start of radiation exposure, then exposed to 50 mJ/cm^2/day of UVB, an empirically determined sub-erythematic dose, 5 days per week (Monday-Friday) for 6 weeks. If there were patches of fur re-growth, mice were re-shaved once every two weeks.
For blood draws, mice were placed in a standard restrainer and tail vein blood was collected in EDTA microvette tubes containing 0.6TIU aprotinin. Mice underwent blood draws prior to the start of radiation exposure, once per week during the radiation exposure regimen, and once per week for two weeks following cessation of the UV regimen. Blood was drawn in the mornings prior to radiation exposure on Fridays.
Tubes of collected blood were maintained on ice until centrifugation at 3500 RPM for 20 minutes at 4° C. Plasma was isolated and samples were stored at −80° C. until β-endorphin measurement. β-endorphin was quantified by radioimmunoassay (Phoenix Pharmaceuticals, Burlingame, Calif.).

K14-e/e and e/e mice = test: Naloxone-precipitated symptoms of opiate withdrawal in forskolin plus rolipram treated mice; format: in vivo; settings: individual forskolin plus rolipram treated mice, naloxone 2 mg/kg; for Rearing: 25 min; for Jumping: events in 25 min; for Diarrhea: fecal pellets at 25 min; for Paw Tremor / Teeth Chatter / Wet Dog Shake / oming: occurrence per 15 sec interval over 25 min
Description: Female mice were treated with 40 μL of 20%-Forskolin extract daily and 40 μL of rolipram (Sigma) 20 μM in DMSO or vehicle control. Basal blood samples were collected at the beginning of each experiment. After treatment started, blood samples were collected once a week. After 4 weeks of continuous exposure to forskolin and rolipram or vehicle control, mice were injected with saline or naloxone and symptoms of opiate withdrawal were measured for 25 min post injection. Naloxone (St. Luis, Mo.) was diluted in saline at […] and was administrated to mice ˜200 μL, depending on the mass of each mouse (2 mg/kg). Symptoms assigned were wet dog shake (WDS), paw tremor, jumping, bouts of grooming, teeth chatter (TC), rearing and diarrhea. The occurrence in each 15 sec interval of WDS, paw tremor, bouts of grooming and teeth chatter (TC) was used to quantify these parameters. The number of fecal pellets and the individual jumping events at the end of 25 min were quantified for these two factors.
Finally, the functional significance of systemic β-endorphin elevations upon cAMP activation was tested by carrying out behavioral studies on forskolin plus rolipram treated mice.

Structure (SMILES): C=CCN1CC[C@]23c4c5ccc(O)c4O[C@H]2C(=O)CC[C@@]3(O)[C@H]1C5 [naloxone, naloxone hydrochloride]
- plasma β-endorphin (β-endorphin): no significant effect of Naloxone treatment within either group
- Rearing (K14-e/e and e/e mice; K14:e/e): 0
- Jumping (K14-e/e and e/e mice; K14:e/e): 0
- Diarrhea (K14-e/e and e/e mice; K14:e/e, hydrochloride): 0 and 1
- Paw Tremor (K14-e/e and e/e mice; K14:e/e, hydrochloride): 0 and 2
- Teeth Chatter (K14-e/e and e/e mice; K14:e/e, hydrochloride): 80 and 107
- Wet Dog Shake (K14-e/e and e/e mice; K14:e/e, hydrochloride): 145 and 135
- oming (K14-e/e and e/e mice; K14:e/e, hydrochloride): 17 and 2
- Rearing (K14-e/e and e/e mice; e/e, hydrochloride): 0 and 18
- Jumping (K14-e/e and e/e mice; e/e): 0
- Diarrhea (K14-e/e and e/e mice; e/e, hydrochloride): 1 and 2
- Paw Tremor (K14-e/e and e/e mice; e/e, hydrochloride): 4 and 34
- Teeth Chatter (K14-e/e and e/e mice; e/e, hydrochloride): 116 and 75
- Wet Dog Shake (K14-e/e and e/e mice; e/e, hydrochloride): 120 and 76
- oming (K14-e/e and e/e mice; e/e, hydrochloride): 13 and 19
